We go through 27 molecules from patent US20230086703A1, “N-(4-(5-chloropyridin-3-yl)phenyl)-2-(2-(cyclopropanesulfonamido)pyrimidin-4-yl) butanamide derivatives and related compounds as human CTPS1 inhibitors for the treatment of proliferative diseases” (Step Pharma S.A.S., priority 2019, published 2023).

Some results are limits rather than exact numbers.

In the first assay the target is T1, human CTPS1 (Homo sapiens, UniProt P17812).
T1 construct: FLAG (with GG linker); His8 (with GG linker); purchased Proteros biostructures GmbH
T1 sequence (P17812 1-591): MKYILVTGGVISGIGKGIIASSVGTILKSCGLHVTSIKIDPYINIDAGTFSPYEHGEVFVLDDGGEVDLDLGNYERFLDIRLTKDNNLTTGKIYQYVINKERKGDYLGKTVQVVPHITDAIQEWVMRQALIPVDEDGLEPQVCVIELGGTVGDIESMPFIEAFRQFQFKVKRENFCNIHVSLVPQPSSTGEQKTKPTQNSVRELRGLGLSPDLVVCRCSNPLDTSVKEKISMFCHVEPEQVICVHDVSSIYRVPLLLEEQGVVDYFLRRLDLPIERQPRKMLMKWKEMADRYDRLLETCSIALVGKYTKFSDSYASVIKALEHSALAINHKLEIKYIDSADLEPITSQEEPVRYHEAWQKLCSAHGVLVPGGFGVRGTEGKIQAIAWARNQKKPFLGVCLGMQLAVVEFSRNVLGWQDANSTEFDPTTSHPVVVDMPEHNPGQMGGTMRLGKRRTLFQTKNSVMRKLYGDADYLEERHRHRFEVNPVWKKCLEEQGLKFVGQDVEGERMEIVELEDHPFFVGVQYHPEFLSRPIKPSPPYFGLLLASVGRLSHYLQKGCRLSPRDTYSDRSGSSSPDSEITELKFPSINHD
The assay can be described thus: Human CTPS1 enzyme inhibition, ADP-Glo Max assay. As to conditions: ADP-Glo Max assay; Table 10; read-out: Human CTPS1 Enzyme Inhibition, IC50 grouped by potency range (CTPS1). Type of assay: biochemical. The procedure: The enzyme inhibitory activities of compounds invented against the target of interest were determined using the ADP-Glo™ Max assay (Promega, UK). Assays for human CTPS1 were performed in 1× assay buffer containing 50 mM Tris, 10 mM MgCl2, 0.01% Tween-20, pH to 8.0 accordingly. Finally, immediately before use, L-cysteine was added to the 1× assay buffer to a final concentration of 2 mM. All reagents are from Sigma-Aldrich unless specified otherwise.
3× human CTPS1 protein was prepared in 1× assay buffer to the final working protein concentration required for the reaction. A 2 uL volume per well of 3× human CTPS1 protein was mixed with 2 uL per well of 3× test compound (compound prepared in 1× assay buffer to an appropriate final 3× compound concentration respective to the concentration response curve designed for the compounds under test) for 10 minutes at 25° C. […] ADP-Glo™ Max reagent was added for 60 minutes (6 μL per well) and subsequently ADP-Glo™ Max development reagent was added for 60 minutes (12 uL per well) prior to signal detection in a microplate reader (EnVision® Multilabel Reader, Perkin Elmer). Following each reagent addition over the course of the assay, assay plates were pulse centrifuged for 30 seconds at 500 rpm.
In all cases, the enzyme converts ATP to ADP and the ADP-Glo™ Max reagent subsequently depletes any remaining endogenous ATP in the reaction system. The ADP-Glo™ Max detection reagent converts the ADP that has been enzymatically produced back into ATP and using ATP as a substrate together with luciferin for the enzyme luciferase, light is generated which produces a detectable luminescence. […] The percentage inhibition produced by each concentration of compound was calculated using the equation shown below: […]
Background: In ADP-Glo the light output rises with the ADP produced.
On to `CC(C)(C(=O)Nc1ccc(-c2cncc(C(F)(F)F)n2)cc1F)c1csc(NS(=O)(=O)CC2CC2)n1` [T430, 2-(2-((cyclopropylmethyl)sulfonamido)thiazol-4-yl)-N-(2-fluoro-4-(6-(trifluoromethyl)pyrazin-2-yl)phenyl)-2-methylpropanamide], for which the IC50 was in the range of 100 to 1000 nM.

Consider `CC(C)(C(=O)Nc1ccc(-c2cncc(Cl)c2)cn1)c1csc(NS(=O)(=O)C2CC2)n1` [T225, N-(5′-chloro-[3,3′-bipyridin]-6-yl)-2-(2-(cyclopropanesulfonamido)thiazol-4-yl)-2-methylpropanamide], for which the IC50 was < 100 nM.

Consider `CC(C)(C(=O)Nc1ccc(-c2cncc(C(F)(F)F)n2)cc1)c1csc(NS(=O)(=O)C(C)(C)C)n1` [T305, 2-(2-((1,1-dimethylethyl)sulfonamido)thiazol-4-yl)-2-methyl-N-(4-(6-(trifluoromethyl)pyrazin-2-yl)phenyl)propanamide], for which the IC50 lay within 100 to 1000 nM.

Turning to `CCOc1cncc(-c2ccc(NC(=O)C(N)c3csc(NS(=O)(=O)C4CC4)n3)cc2)n1` (stereo not drawn) [T325, 2-Amino-2-(2-(cyclopropanesulfonamido)thiazol-4-yl)-N-(4-(6-ethoxypyrazin-2-yl)phenyl)acetamide], the IC50 is < 100 nM.

Turning to `CC(C)(C(=O)Nc1ccc(-c2cncc(OCC(F)(F)F)n2)cc1)c1csc(NS(=O)(=O)C2CC2)n1` [T127, 2-(2-(cyclopropanesulfonamido)thiazol-4-yl)-2-methyl-N-(4-(6-(2,2,2-trifluoroethoxy)pyrazin-2-yl)phenyl)propanamide], the IC50 is < 100 nM.

Take `CC(C)(C(=O)Nc1ccc(-c2cncc(Cl)c2)cc1)c1csc(NS(=O)(=O)C2CC2)n1` [T252, N-(4-(5-chloropyridin-3-yl)phenyl)-2-(2-(cyclopropanesulfonamido)thiazol-4-yl)-2-methylpropanamide]: the IC50 was < 100 nM.

As for `CCOc1cncc(-c2ccc(NC(=O)C(C)(C)c3csc(NS(=O)(=O)C(F)(F)F)n3)cc2)n1` [T296, N-(4-(6-ethoxypyrazin-2-yl)phenyl)-2-methyl-2-(2-((trifluoromethyl)sulfonamido)thiazol-4-yl)propanamide], the IC50 fell in the range of 100 to 1000 nM.

`CC(C)(C(=O)Nc1ncc(-c2cncc(C(F)(F)F)n2)cc1F)c1csc(NS(=O)(=O)C2CC2)n1` [T112, 2-(2-(cyclopropanesulfonamido)thiazol-4-yl)-N-(3-fluoro-5-(6-(trifluoromethyl)pyrazin-2-yl)pyridin-2-yl)-2-methylpropanamide]: the IC50 was < 100 nM.

For the molecule `CC(C)(C(=O)Nc1ccc(-c2cncc(OC3CC3)n2)cc1)c1csc(NS(=O)(=O)C2CC2)n1` [T273, 2-(2-(cyclopropanesulfonamido)thiazol-4-yl)-N-(4-(6-cyclopropoxypyrazin-2-yl)phenyl)-2-methylpropanamide], the IC50 is < 100 nM.

Take `CC(C)(C(=O)Nc1ccc(-c2cncc(N3CCOCC3)n2)cc1)c1csc(NS(=O)(=O)C2CC2)n1` [T53, 2-(2-(cyclopropanesulfonamido)thiazol-4-yl)-2-methyl-N-(4-(6-morpholinopyrazin-2-yl)phenyl)propanamide]: the IC50 was 1000 to 10000 nM.

For the molecule `CC(C)(C(=O)Nc1ccc(-c2cncc(C(F)(F)F)c2)cc1F)c1csc(NS(C)(=O)=O)n1` [T426, N-(2-fluoro-4-(5-(trifluoromethyl)pyridin-3-yl)phenyl)-2-methyl-2-(2-(methylsulfonamido)thiazol-4-yl)propanamide], the IC50 is 100 to 1000 nM.

With `COc1cccc(-c2ccc(NC(=O)C(C)(C)c3csc(NS(=O)(=O)C4CC4)n3)cc2)c1` [T28, 2-(2-(cyclopropanesulfonamido)thiazol-4-yl)-N-(3′-methoxy-[1,1′-biphenyl]-4-yl)-2-methylpropanamide], the IC50 was in the range of 100 to 1000 nM.

Regarding `COc1cc(NC(=O)C(C)(C)c2csc(NS(=O)(=O)C3CC3)n2)ccc1-c1cnccn1` [T43, 2-(2-(cyclopropanesulfonamido)thiazol-4-yl)-N-(3-methoxy-4-(pyrazin-2-yl)phenyl)-2-methylpropanamide], the IC50 was in the range of 100 to 1000 nM.

For the molecule `CC(C)Oc1cncc(-c2ccc(NC(=O)C(C)(C)c3csc(NS(=O)(=O)C4CC4)n3)nc2)n1` [T143, 2-(2-(cyclopropanesulfonamido)thiazol-4-yl)-N-(5-(6-isopropoxypyrazin-2-yl)pyridin-2-yl)-2-methylpropanamide], the IC50 is < 100 nM.

Turning to `CC(C)(C(=O)Nc1ccc(-c2ccccc2)nc1)c1csc(NS(=O)(=O)C2CC2)n1` [T239, 2-(2-(cyclopropanesulfonamido)thiazol-4-yl)-2-methyl-N-(6-phenylpyridin-3-yl)propanamide], the IC50 lay within 100 to 1000 nM.

Turning to `CC(C)(C(=O)Nc1ccc(-c2cccnc2)cn1)c1csc(NS(=O)(=O)C2CC2)n1` [T148, N-([3,3′-bipyridin]-6-yl)-2-(2-(cyclopropanesulfonamido)thiazol-4-yl)-2-methylpropanamide], the IC50 is 100 to 1000 nM.

Consider `CC(C)(C(=O)Nc1ccc(-c2cncc(F)c2)cc1F)c1csc(NS(=O)(=O)C2CC2)n1` [T126, 2-(2-(cyclopropanesulfonamido)thiazol-4-yl)-N-(2-fluoro-4-(5-fluoropyridin-3-yl)phenyl)-2-methylpropanamide], for which the IC50 was < 100 nM.

Take `CC(C)(C(=O)Nc1ccc(-c2cccnc2)c(F)c1F)c1csc(NS(=O)(=O)C2CC2)n1` [T36, 2-(2-(cyclopropanesulfonamido)thiazol-4-yl)-N-(2,3-difluoro-4-(pyridin-3-yl)phenyl)-2-methylpropanamide]: the IC50 was 100 to 1000 nM.

In the case of `CCC(C(=O)Nc1ccc(-c2cncc(C(F)(F)F)n2)cc1)c1csc(NS(=O)(=O)C2CC2)n1` (single isomer, unassigned) [T106, 2-(2-(cyclopropanesulfonamido)thiazol-4-yl)-N-(4-(6-(trifluoromethyl)pyrazin-2-yl)phenyl)butanamide], the IC50 is < 100 nM.

For `CC(C)(C(=O)Nc1ccc(-c2cccc(C(F)(F)F)c2)cn1)c1csc(NS(=O)(=O)C2CC2)n1` [T235, 2-(2-(cyclopropanesulfonamido)thiazol-4-yl)-2-methyl-N-(5-(3-(trifluoromethyl)phenyl)pyridin-2-yl)propanamide], the IC50 lay within 100 to 1000 nM.

As for `CCOc1cncc(-c2ccc(NC(=O)C(C)(C)c3csc(NS(=O)(=O)C(C)C)n3)cc2)n1` [T298, N-(4-(6-ethoxypyrazin-2-yl)phenyl)-2-methyl-2-(2-((1-methylethyl)sulfonamido)thiazol-4-yl)propanamide], the IC50 was < 100 nM.

Turning to `Cc1cc(NC(=O)C(C)(C)c2csc(NS(=O)(=O)C3CC3)n2)ccc1-c1cncc(C#N)c1` [T322, N-(4-(5-cyanopyridin-3-yl)-3-methylphenyl)-2-(2-(cyclopropanesulfonamido)thiazol-4-yl)-2-methylpropanamide], the IC50 fell in the range of 100 to 1000 nM.

For `CC(C)(C(=O)Nc1ccc(-c2cncc(Cl)c2)cc1F)c1csc(NS(=O)(=O)C2CC2)n1` [T128, N-(4-(5-chloropyridin-3-yl)-2-fluorophenyl)-2-(2-(cyclopropanesulfonamido)thiazol-4-yl)-2-methylpropanamide], the IC50 was < 100 nM.

`CC(C)(C(=O)Nc1ccc(-c2cccnc2)cc1OC(F)(F)F)c1csc(NS(=O)(=O)C2CC2)n1` [T40, 2-(2-(cyclopropanesulfonamido)thiazol-4-yl)-2-methyl-N-(4-(pyridin-3-yl)-2-(trifluoromethoxy)phenyl)propanamide]: the IC50 was < 100 nM.

As to `CC(C)(C(=O)Nc1ccc(-c2cccc(Cl)n2)cc1)c1csc(NS(=O)(=O)C2CC2)n1` [T268, N-(4-(6-chloropyridin-2-yl)phenyl)-2-(2-(cyclopropanesulfonamido)thiazol-4-yl)-2-methylpropanamide], the IC50 was in the range of 100 to 1000 nM.

For `CCOc1cncc(-c2ccc(NC(=O)C(C)(C)c3csc(NS(C)(=O)=O)n3)c(F)c2)n1` [T431, N-(4-(6-ethoxypyrazin-2-yl)-2-fluorophenyl)-2-methyl-2-(2-(methylsulfonamido)thiazol-4-yl)propanamide], the IC50 was < 100 nM.

The same assay, now with this note: Table 12, ADP-Glo Max assay; read-out: CTPS1 (Human CTPS1 Enzyme Inhibition data grouped by potency range).
With `CCOc1cncc(-c2ccc(NC(=O)C3(c4ccnc(NS(=O)(=O)C5CC5)n4)CCC(N(C)CC(F)F)CC3)nc2)n1` (stereo not drawn) [P310], the IC50 is < 100 nM.
